Measured values from patent US20060069132A1, “Azolecarboxamide herbicides” (priority 2004, published 2006).

Tests used:
[1] = test system: giant foxtail; experiment: Test A pre-/postemergence herbicide test; assay type: in vivo, Setaria faberi
In short: (§1)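 Both application timings were run together: directed soil spray over freshly planted seeds in sandy loam, and runoff spray onto 2–10 cm seedlings. Evaluation after ~10 days in greenhouse used a 0–100 visual scale versus untreated controls.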

[2] = test system: velvetleaf; experiment: Test A pre-/postemergence herbicide test; assay type: in vivo, Abutilon theophrasti
In short: as §1

[3] = test system: cocklebur; experiment: Test C pre-/postemergence herbicide test; assay type: in vivo, Xanthium strumarium
In short: (§2)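 Emerged plants at the 1- to 4-leaf stage (2–18 cm), or freshly planted seeds, received test chemicals in a non-phytotoxic solvent mixture with surfactant. Response was visually scored against controls after 12 to 14 days in the greenhouse, on a 0 (no effect) to 100 (complete control) scale.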

[4] = test system: large crabgrass; experiment: Test C pre-/postemergence herbicide test; assay type: in vivo, Digitaria sanguinalis
In short: as §2

[5] = test system: pigweed; experiment: Test C pre-/postemergence herbicide test; assay type: in vivo, Amaranthus retroflexus
In short: as §2

[6] = test system: common (oilseed) sunflower; experiment: Test C pre-/postemergence herbicide test; assay type: in vivo, Helianthus annuus; conditions: preemergence
In short: as §2

[7] = test system: velvetleaf; experiment: Test C pre-/postemergence herbicide test; assay type: in vivo, Abutilon theophrasti
In short: as §2

[8] = Postemergence, 500 g ai/ha, 0 to 100 scale, 0 no effect, 100 complete control
[9] = Postemergence, 2000 g ai/ha, 0 to 100 scale, 0 no effect, 100 complete control
[10] = Preemergence, 500 g ai/ha, visual rating, 0 to 100 scale (0 no effect, 100 complete control)
[11] = Preemergence, 2000 g ai/ha, 0 to 100 scale, 0 no effect, 100 complete control
[12] = 250 g ai/ha, scale 0 to 100 (0 no effect, 100 complete control), visual, 12 to 14 days, preemergence
[13] = Postemergence, 125 g ai/ha, scale 0 to 100, 0 no effect, 100 complete control
[14] = Postemergence, 250 g ai/ha, scale 0 to 100, 0 no effect, 100 complete control
[15] = postemergence, 62 g ai/ha, scale 0 to 100
[16] = 125 g ai/ha, scale 0 (no effect) to 100 (complete control), visual, 12 to 14 days, preemergence
[17] = 125 g ai/ha, scale 0 (no effect) to 100 (complete control), visual, 12 to 14 days
[18] = 62 g ai/ha, preemergence, scale 0 to 100
[19] = 250 g ai/ha, scale 0-100, preemergence
[20] = 500 g ai/ha, scale 0 to 100 (0 no effect, 100 complete control), visual, 12 to 14 days, preemergence
[21] = 500 g ai/ha, scale 0 to 100 (0 no effect, 100 complete control), visual, 12 to 14 days
[22] = 31 g ai/ha, preemergence, scale 0 to 100
[23] = postemergence, 125 g ai/ha, scale 0 to 100
[24] = Preemergence, 2000 g ai/ha, visual rating, 0 to 100 scale (0 no effect, 100 complete control)

CCn1nc(C(C)(C)C)cc1C(=O)Nc1cccc(C(=O)NC2CC2)c1 [Compound 44]
Plant response rating, Foxtail, Giant [1, 8]: 50
Plant response rating, Foxtail, Giant [1, 9]: 90
Foxtail, Giant plant response rating [1, 10]: 65
Foxtail, Giant plant response rating [1, 11]: 100
Plant response rating, Velvetleaf [2, 9]: 65
Velvetleaf plant response rating [2, 10]: 20
Velvetleaf plant response rating [2, 11]: 35
Plant response rating (0 = no effect, 100 = complete control), Cocklebur ([3]; 62 g ai/ha, preemergence): 0
Plant response rating, Cocklebur [3, 12]: 0
Plant response rating, Cocklebur [3, 13]: 70
Plant response rating, Cocklebur [3, 14]: 70
Plant response rating, Cocklebur [3, 15]: 50
Plant response rating (0 = no effect, 100 = complete control), Crabgrass, Large ([4]; 62 g ai/ha, preemergence): 0
Plant response rating, Crabgrass, Large [4, 16]: 20
Plant response rating, Crabgrass, Large [4, 12]: 20
Plant response rating, Crabgrass, Large [4, 13]: 90
Plant response rating, Crabgrass, Large [4, 14]: 90
Plant response rating, Crabgrass, Large [4, 15]: 60
Plant response rating (0 = no effect, 100 = complete control), Pigweed ([5]; 62 g ai/ha, preemergence): 10
Plant response rating, Pigweed [5, 16]: 70
Plant response rating, Pigweed [5, 12]: 90
Plant response rating, Pigweed [5, 14]: 100
Plant response rating, Pigweed [5, 15]: 100
Plant response rating (0 = no effect, 100 = complete control), Sunflower ([6]; 62 g ai/ha): 0
Plant response rating, Sunflower [6, 17]: 0
Plant response rating, Sunflower ([6]; 250 g ai/ha, scale 0 to 100 (0 no effect, 100 complete control), visual, 12 to 14 days): 0
Plant response rating (0 = no effect, 100 = complete control), Velvetleaf ([7]; 62 g ai/ha, preemergence): 70
Plant response rating, Velvetleaf [7, 16]: 70
Plant response rating, Velvetleaf [7, 12]: 70
Plant response rating, Velvetleaf [7, 15]: 60

CCc1nn(C(C)C)nc1C(=O)Nc1cccc(C(=O)N(C)CC)c1 [Compound 386]
Plant response rating, Cocklebur [3, 18]: 0
Plant response rating (0 = no effect, 100 = complete control), Cocklebur ([3]; 125 g ai/ha, preemergence): 20
Plant response rating, Cocklebur [3, 19]: 30
Plant response rating, Cocklebur [3, 20]: 70
Plant response rating, Crabgrass, Large [4, 18]: 98
Plant response rating (0 = no effect, 100 = complete control), Crabgrass, Large ([4]; 125 g ai/ha, preemergence): 100
Plant response rating, Crabgrass, Large [4, 19]: 100
Plant response rating, Crabgrass, Large [4, 20]: 100
Plant response rating, Pigweed [5, 18]: 100
Plant response rating (0 = no effect, 100 = complete control), Pigweed ([5]; 125 g ai/ha, preemergence): 100
Plant response rating, Pigweed [5, 19]: 100
Plant response rating, Pigweed [5, 20]: 100
Plant response rating (0 = no effect, 100 = complete control), Sunflower ([6]; 125 g ai/ha): 40
Plant response rating, Sunflower ([6]; 250 g ai/ha, scale 0-100): 85
Plant response rating, Sunflower [6, 21]: 85
Plant response rating, Velvetleaf [7, 18]: 70
Plant response rating (0 = no effect, 100 = complete control), Velvetleaf ([7]; 125 g ai/ha, preemergence): 100
Plant response rating, Velvetleaf [7, 19]: 100
Plant response rating, Velvetleaf [7, 20]: 100

CCNC(=O)c1cccc(NC(=O)c2cc(C(C)(C)C)nn2CCF)c1 [Compound 35]
Plant response rating, Foxtail, Giant [1, 8]: 50
Plant response rating, Foxtail, Giant [1, 9]: 70
Foxtail, Giant plant response rating [1, 10]: 80
Foxtail, Giant plant response rating [1, 11]: 100
Plant response rating, Velvetleaf [2, 8]: 25
Plant response rating, Velvetleaf [2, 9]: 40
Velvetleaf plant response rating [2, 10]: 35
Velvetleaf plant response rating [2, 11]: 95
Plant response rating, Cocklebur [3, 22]: 0
Plant response rating (0 = no effect, 100 = complete control), Cocklebur ([3]; 62 g ai/ha, preemergence): 0
Plant response rating, Cocklebur [3, 16]: 20
Plant response rating, Cocklebur [3, 13]: 70
Plant response rating, Cocklebur ([3]; postemergence, 16 g ai/ha, scale 0 to 100): 20
Plant response rating, Cocklebur ([3]; postemergence, 31 g ai/ha, scale 0 to 100): 20
Plant response rating, Cocklebur [3, 15]: 60
Plant response rating, Crabgrass, Large [4, 22]: 0
Plant response rating (0 = no effect, 100 = complete control), Crabgrass, Large ([4]; 62 g ai/ha, preemergence): 10
Plant response rating, Crabgrass, Large [4, 16]: 50
Plant response rating, Crabgrass, Large [4, 13]: 40
Plant response rating, Crabgrass, Large [4, 15]: 40
Plant response rating, Pigweed [5, 22]: 0
Plant response rating (0 = no effect, 100 = complete control), Pigweed ([5]; 62 g ai/ha, preemergence): 90
Plant response rating, Pigweed [5, 16]: 100
Plant response rating, Pigweed [5, 23]: 100
Plant response rating, Pigweed [5, 15]: 100
Plant response rating, Sunflower ([6]; 31 g ai/ha, scale 0 to 100): 10
Plant response rating (0 = no effect, 100 = complete control), Sunflower ([6]; 62 g ai/ha): 10
Plant response rating, Sunflower [6, 17]: 10
Plant response rating, Velvetleaf [7, 22]: 0
Plant response rating (0 = no effect, 100 = complete control), Velvetleaf ([7]; 62 g ai/ha, preemergence): 100
Plant response rating, Velvetleaf [7, 16]: 100
Plant response rating, Velvetleaf [7, 23]: 80
Plant response rating, Velvetleaf [7, 15]: 70

CC(=O)c1cccc(NC(=O)c2cc(C(C)(C)C)nn2CCF)c1 [Compound 128]
Foxtail, Giant plant response rating [1, 8]: 45
Plant response rating, Foxtail, Giant [1, 9]: 60
Foxtail, Giant plant response rating [1, 10]: 15
Foxtail, Giant plant response rating [1, 24]: 65
Velvetleaf plant response rating [2, 8]: 20
Plant response rating, Velvetleaf [2, 9]: 35
Velvetleaf plant response rating [2, 24]: 85
Velvetleaf plant response rating ([2]; preemergence, 500 g ai/ha, visual injury, 0 to 100 scale (0 no effect, 100 complete control)): 75
Plant response rating (0 = no effect, 100 = complete control), Cocklebur ([3]; 62 g ai/ha, preemergence): 10
Plant response rating, Cocklebur [3, 16]: 10
Plant response rating (0 = no effect, 100 = complete control), Crabgrass, Large ([4]; 62 g ai/ha, preemergence): 100
Plant response rating, Crabgrass, Large [4, 16]: 100
Plant response rating, Pigweed [5, 16]: 60
Plant response rating, Sunflower [6, 17]: 50
Plant response rating, Velvetleaf [7, 16]: 100

Cc1nn(C(C)(C)C)nc1C(=O)Nc1cccc(C(=S)N(C)C)c1 [Compound 419]
Plant response rating, Cocklebur [3, 18]: 0
Plant response rating (0 = no effect, 100 = complete control), Cocklebur ([3]; 125 g ai/ha, preemergence): 25
Plant response rating, Cocklebur [3, 19]: 45
Plant response rating, Cocklebur [3, 20]: 70
Plant response rating, Crabgrass, Large [4, 18]: 100
Plant response rating (0 = no effect, 100 = complete control), Crabgrass, Large ([4]; 125 g ai/ha, preemergence): 100
Plant response rating, Crabgrass, Large [4, 19]: 100
Plant response rating, Crabgrass, Large [4, 20]: 100
Plant response rating, Pigweed [5, 18]: 100
Plant response rating (0 = no effect, 100 = complete control), Pigweed ([5]; 125 g ai/ha, preemergence): 100
Plant response rating, Pigweed [5, 20]: 100
Plant response rating, Sunflower ([6]; 62 g ai/ha, scale 0 to 100): 0
Plant response rating (0 = no effect, 100 = complete control), Sunflower ([6]; 125 g ai/ha): 0
Plant response rating, Sunflower [6, 21]: 95
Plant response rating, Velvetleaf [7, 18]: 100
Plant response rating (0 = no effect, 100 = complete control), Velvetleaf ([7]; 125 g ai/ha, preemergence): 100
Plant response rating, Velvetleaf [7, 20]: 100

C=CCNC(=O)c1cccc(NC(=O)c2nn(C(C)C)nc2CC)c1 [Compound 382]
Plant response rating, Cocklebur [3, 18]: 0
Plant response rating (0 = no effect, 100 = complete control), Cocklebur ([3]; 125 g ai/ha, preemergence): 15
Plant response rating, Cocklebur [3, 19]: 20
Plant response rating, Cocklebur [3, 20]: 45
Plant response rating, Crabgrass, Large [4, 18]: 95
Plant response rating (0 = no effect, 100 = complete control), Crabgrass, Large ([4]; 125 g ai/ha, preemergence): 100
Plant response rating, Crabgrass, Large [4, 19]: 100
Plant response rating, Crabgrass, Large [4, 20]: 100
Plant response rating, Pigweed [5, 18]: 95
Plant response rating (0 = no effect, 100 = complete control), Pigweed ([5]; 125 g ai/ha, preemergence): 95
Plant response rating, Pigweed [5, 19]: 100
Plant response rating, Pigweed [5, 20]: 100
Plant response rating, Sunflower ([6]; 62 g ai/ha, scale 0 to 100): 0
Plant response rating, Sunflower ([6]; 250 g ai/ha, scale 0-100): 0
Plant response rating, Sunflower [6, 21]: 20
Plant response rating, Velvetleaf [7, 18]: 100
Plant response rating (0 = no effect, 100 = complete control), Velvetleaf ([7]; 125 g ai/ha, preemergence): 100
Plant response rating, Velvetleaf [7, 19]: 100
Plant response rating, Velvetleaf [7, 20]: 100
